Patent US5543410A, “Pharmacological use of phthaloylhydrazide derivatives; combination and application thereof” (L.I.M.A.D. Limited, priority 1993, dated 1996)

System: toxins

Nc1cccc2c(=O)[nH][nH]c(=O)c12
time to therapeutic effect (after administration, acute phase): twenty to thirty
injections sufficient for complete elimination of pathological indications (within a one-day period): one or two
